Experimental data taken from US7781406B2, “Production and use of the methotrexate-albumin conjugate as an immunosuppressive agent in GVHD” (Albupharm Heidelberg GmbH & Co. KG, priority 2004, dated 2010).

System: acute GVHD in F1 hybrid BN/Lew rats
Test: GVHD animal experiment: irradiated rats after transplantation of bone marrow cells and T lymphocytes
Assay type: in vivo
Conditions: methotrexate-albumin 2 mg/kg i.p. day 0, 4, 8, 12, MTX at equieffective doses
Source text: Animal experiments: (authorization No. LVL M-V310-4/7221.3-1.2-015/03 Landesveterinäramt Mecklenburg-Vorpommern Rostock)
Dr. M. Freund in Rostock University clinic under the direction of PD Dr G. Hartung and Dr D. Wolff. These entailed 20 female F1 hybrid BN/Lew rats receiving whole-body irradiation with 7.5 Gy (n=10) or 9 Gy (n=10) and then transplantation of 40 million bone marrow cells and 15 million T lymphocytes from female Lew rats.

`CN(Cc1cnc2nc(N)nc(N)c2n1)c1ccc(C(=O)N[C@@H](CCC(=O)O)C(=O)O)cc1` [MTX, 4-amino-4-deoxy-10-methylfolic acid] was tested, and the side effects was “distinct side effect”.
